Here are results for 1 compound from patent US9023853B2, “Janus kinase 2 (JAK2) inhibitor for the treatment of lupus” (Cephalon, Inc., priority 2010, dated 2015).

What all share (type): in vivo, mouse
For experiment [1], the system named is pSTAT3. Briefly: Pharmacodynamic renal pSTAT3 (JAK2 inhibition marker) in MRL/lpr mice. The note with it: four hours after final dosing at EOS. From the text:
MRL/lpr mice were first randomized, initial bleeds collected, and body weights recorded for baseline measurements (FIG. 1). All mice were individually ear tagged and were monitored throughout the entire experiment (e.g., “Group#-Cage letter-Mouse#”, so “3B5”=Group 3 (G3), cage B, mouse#5). Mice were age-matched and treatment started at 6-8 weeks of age. Cheek bleeds and urine collection continued weekly throughout the experiment. Mice were individually tracked for several parameters including cytokine and ANA levels, proteinuria, body mass, lymphomegaly, general health, and mortality. All parameters were evaluated bi-monthly except mortality which was monitored daily. All groups consisted of a minimum of at least 10-12 mice per group. Ex vivo experiments included flow cytometry analyses for plasma cells, serum complement C3 and ANA levels; urine protein and leukocytes, serum cytokine profiling, renal histo pathology, and determination of compound levels (pharmacokinetics (PK)) in the spleen, kidney and plasma. Mice were tracked on an individual basis. For all data, mice were grouped into populations and data graphed as mean±SEM. Bi-monthly observations and data collected were recorded for each group, except mortality which was performed daily. End-stage readouts were analyzed as described in the MATERIALS AND METHODS section (above) and in FIG. 1. […]

Experiment [2] relates to NZM mice. The experiment in a line: Splenomegaly (EOS spleen mass) in NZM mice. As to the method:
Age mated, female, NZM or NZW/LacJ, mice were matured for the study of lupus nephritis for a total of 7 months or 210 days at which time urine was collected for proteinuria detection. Mice with 0.5-1.0 mg/ml of urine protein as determined by an optical density-based total protein precipitation assay and cross-checked for 30-300 mg/dl of protein as determined by a stick assay were considered proteinuria positive and selected for study entry. Groups were normalized to contain a Gaussian distribution of proteinuria positive animals (i.e., ⅓ low proteinuria, ⅓ medium, ⅓ high) then randomized between groups before ear marking and taking baseline measures including urine and serum collections. A total of five mice from the total population were randomly selected for baseline kidney histology evaluation. Treatments and tests for each group are as described in FIG. 12. Briefly, with a minimum of 10 mice per group, COMPOUND A was administered at 100 mg/kg or 55 mg/kg, both twice a day and orally. […] Vehicle included 3% DMSO, 10% Solutol and 87% PBS. […] End-stage lupus nephritis was evaluated by histopathology and scored by a board certified pathologist for the assessment of total renal damage in diseased animals using the scoring method described by Smith et al (Smith, Dong et al. 2007). […] Day-98 or “end of treatment/study” represents 310 days of age for the NZM animals.

For experiment [3], the system named is c-telopeptide collagen type I cross-linker; CTx. The experiment in a line: Osteoclast activity: serum bone resorption biomarker CTx in NZM mice. From the text: Vehicle included 3% DMSO, 10% Solutol and 87% PBS.

Consider `CN1CCN(c2cccc(Nc3nc4c(-c5ccc(S(C)(=O)=O)cc5)cccn4n3)c2)CC1` [COMPOUND A, [8-(4-methanesulfonyl-phenyl)-[1,2,4]triazolo[1,5-a]pyridin-2-yl]-[3-(4-methyl-piperazin-1-yl)-phenyl]-amine], for which the “renal pSTAT3” value in experiment [1] (55 mg/kg) and in experiment [1] (100 mg/kg) was “Significant reductions” in each case. The figures for the “total EOS spleen mass decrease compared to vehicle” value in experiment [2] (55 mg/kg) and in experiment [2] (100 mg/kg) were 71.8% and 73.5%, respectively. For the same compound, the results for the “serum CTx decrease vs. vehicle” value in experiment [3] (55 mg/kg) and in experiment [3] (100 mg/kg) were 37.8% and 46.7%, respectively.
